From PubChem BioAssay (NCI) come the findings set out here.

Each structure is given as a SMILES string. “And” between values parts separate entries of the source, which are not always exact repeats. Identical values can stand only once.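 Step 1: Grow cells in 96-well plates. Step 2: Expose to compound for 48 hours at 5 concentrations. Step 3: Interpolate endpoints linearly; if unreached, use highest concentration. GI50 = concentration required for 50% inhibition of growth. TGI: concentration producing complete growth inhibition.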

Assay in all cases: inhibition of tumour cell growth, NCI panel, 48 h
Assay [1] deals with A549 NSCLC.
The test system of assay [2] is SNB-75 CNS.
In assay [3] the test system is HCT-15 colon.
Assay [4] concerns SK-MEL-5 melanoma.
The subject of assay [5] is T-47D breast.
Assay [6] deals with CCRF-CEM leukemia.
Assay [7] deals with BT-549 breast.
Assay [8] deals with OVCAR-3 ovarian.
The subject of assay [9] is 786-0 renal.
The test system of assay [10] is SR leukemia.

Regarding `Nc1ccn(C2CCC(CO)O2)c(=O)n1` (centres undefined), the GI50 in assay [1] was over 1000 µM; in [2], over 1000 µM; in assay [3] it was over 1000 µM; in assay [4] it was over 1000 µM; in [6], 108 µM; in assay [8], over 1000 µM. The TGI in assay [1], in assay [2], in assay [3], in assay [4], in assay [5] and in [6] was over 1000 µM each time. Besides, the TGI in [7], in [8], in assay [9] and in assay [10] was over 1000 µM throughout.

Turning to `CC1=C(O)C(=O)C=C2C1=CC=C1[C@@]2(C)CC[C@@]2(C)[C@@H]3C[C@](C)(C(=O)O)CC[C@]3(C)CC[C@]12C`, the TGI in assay [1] was found to be 2.03 µM; in [2] it was 0.327 µM; in assay [3], 0.0282 µM; in assay [4] it was 0.228 µM; in assay [5] it was 0.0807 µM; in assay [6], 0.15 µM. The TGI in [7] is 0.0347 µM; in assay [8], 0.0941 µM; in assay [9], 0.0294 µM; in assay [10], 0.0336 µM.

`CCc1nc(C(N)=O)c(Nc2ccc(N3CCC(N4CCN(C)CC4)CC3)c(OC)c2)nc1NC1CCOCC1`: the GI50 in assay [1] is 2.35 µM and 0.379 µM and 2.61 µM; in [2], 0.598 µM and 0.423 µM and 0.67 µM; in [3] it was 1.68 µM and 0.38 µM and 1.41 µM; in assay [4], 12.4 µM and > 10 µM and 13.2 µM; in assay [5] it was 13.2 µM and > 10 µM and 13.4 µM; in assay [6] it was 3.76 µM and 0.901 µM and 7.12 µM. In addition, the GI50 in assay [7] was 2610 nM and 521 nM and 3560 nM; in assay [8] it was 8.01 µM and 3.69 µM and 9.27 µM; in [9] it was 2480 nM and 461 nM and 2380 nM; in assay [10] it was < 13.5 nM and 2.1 nM and 13 nM. The TGI in [1] is 15.2 µM and > 10 µM and 16.1 µM; in assay [2], 5.4 µM and 1.91 µM and 7.74 µM; in assay [3], 15.7 µM and > 10 µM and 16 µM; in assay [4], 25.4 µM and > 10 µM and 26.4 µM; in [5], 30 µM and > 10 µM and 32.7 µM; in [6], 30.1 µM and > 10 µM and 44.4 µM. The TGI in assay [7] is 14.7 µM and > 2.84 µM and 17.3 µM; in assay [8], 22.9 µM and > 10 µM; in assay [9] it was 13.8 µM and > 10 µM and 14.1 µM.

For the compound `Clc1ccc(C=Nc2ccc3c(c2)Cc2ccccc2-3)c(Cl)c1`, the TGI in [1], in assay [2], in assay [3], in assay [4], in [5] and in assay [6] was over 100 µM each time. For the same compound, the TGI in assay [7], in assay [8], in assay [9] and in assay [10] was over 100 µM throughout.

Consider `Br[C](Br)(Br)[Hg][c]1ccccc1`, for which the GI50 in [1] was 29.4 µM; in assay [2], 15.8 µM; in assay [3], 9.39 µM; in [4] it was 11.7 µM; in [5], 9.56 µM; in [6], 1.49 µM. Further, the GI50 in assay [7] was 17200 nM; in assay [8] it was 9.76 µM; in assay [9], 16200 nM; in assay [10] it was 3320 nM. Further, the TGI in assay [1] amounted to 59.5 µM; in [2] it was 32.6 µM; in assay [3] it was 24 µM; in [4], 24.8 µM; in assay [5], 43.7 µM; in [6] it was 9.13 µM. Besides, the TGI in assay [7] came to 31.1 µM; in assay [8], 23.3 µM; in [9], 30.2 µM; in assay [10], 20.4 µM.

Turning to `CCOc1cc(C(C)(C)C)ccc1C1=N[C@@](C)(c2ccc(Cl)cc2)[C@@](C)(c2ccc(Cl)cc2)N1C(=O)N1CCN(CCCS(C)(=O)=O)CC1`, the GI50 in [1] was 1.01 µM; in [2], 3.64 µM; in [3] it was 2.3 µM; in assay [4] it was 1.63 µM; in assay [5], 9.21 µM; in assay [6], 4.1 µM. Moreover, the GI50 is 2760 nM in [7], 11.5 µM in [8], 3200 nM in assay [9] and 236 nM in assay [10]. Also, the TGI in assay [1] was 19.4 µM; in [2] it was 17.3 µM; in [3], 6.01 µM; in assay [4] it was 3.21 µM; in assay [5] it was 61.4 µM; in [6], over 100 µM. For the same compound, the TGI in assay [7] was 15.1 µM; in assay [8] it was 25.7 µM; in assay [9] it was 15.4 µM; in assay [10], over 100 µM.

Turning to `Cc1ccc(-c2nc3ccc(Cl)cc3c(=O)n2N2C(=O)CSC2c2ccccc2Cl)cc1` (centres undefined), the GI50 in [2] is 1.39 µM; in assay [3], over 100 µM; in assay [4], 20 µM; in [5] it was 3.82 µM; in assay [6], over 100 µM; in assay [7], over 100000 nM. The GI50 in assay [8] is 5.44 µM; in assay [9] it was 3620 nM; in assay [10], over 100000 nM. Further, the TGI in assay [2] was 4.74 µM; in assay [3], over 100 µM; in assay [4] it was over 100 µM; in assay [5], over 100 µM; in [6], over 100 µM; in assay [7] it was over 100 µM. The TGI in assay [8], in assay [9] and in [10] was over 100 µM throughout.

Consider `CN(C)CCN1C(=O)c2ccc3c4c(ccc(c24)C1=O)C(=O)N(CCN=C=S)C3=O`, for which the GI50 in assay [1] was 0.0739 µM; in [2], 0.058 µM; in assay [3] it was 0.0579 µM; in [4] it was 0.113 µM; in assay [5], 0.0299 µM; in assay [7] it was 129 nM. Further, the GI50 is 0.0267 µM in assay [8], 43.6 nM in assay [9] and under 17.2 nM in assay [10]. For the same compound, the TGI in assay [1] is 0.252 µM; in [2], 0.198 µM; in assay [3], 0.221 µM; in assay [4], 0.235 µM; in assay [5], 0.165 µM; in assay [7], 0.297 µM. The figures for the TGI in assay [8] and in assay [9] were 0.0897 µM and 0.416 µM, respectively.

As for `O=C(CCC1OCCO1)Nc1cc(NCc2ccccc2)ccc1OCc1ccccc1`, the TGI is over 100 µM in assay [1]; over 100 µM in assay [2]; over 100 µM in assay [3]; 35.3 µM in [4]; over 100 µM in [5]; 45.7 µM in [6]. Also, the TGI is over 100 µM in assay [7], over 100 µM in assay [9] and 92 µM in assay [10].
